Data on one molecule can be found in patent US10457691B2, “Macrocyclic kinase inhibitors and uses thereof” (Dana-Farber Cancer Institute, Inc., priority 2014, dated 2019).

What all share (type): biochemical
One experiment deals with DYRK1A (Homo sapiens, UniProt Q13627). Kind of experiment: Protein kinase assay ([γ-32P] ATP), DYRK1A. The settings on record: read-out: Activity of the protein kinase when treated with compound I-1 (% control). As for the experimental part: (§1) In another set of experiments, the activities of the compounds described herein against various protein kinases were determined according to the methods reported in Hastie et al., Nature Protocols, 2006, 1, 968-971.
(§2) Enzyme dilution buffer. This buffer consisted of 50 mM Tris-HCl, pH 7.5, 0.1 mM EGTA, 1 mg ml^−1 bovine serum albumin and 0.1% (vol/vol) 2-mercaptoethanol.
(§3) 10× concentrated assay buffer. An assay buffer of 500 mM Tris-HCl, pH 7.5, 1 mM EGTA, and 100 mM magnesium acetate was used for assay of a wide variety of protein kinases. In some experiments, other cofactors were included (e.g., calcium ions and calmodulin were included for assay of calcium-calmodulindependent protein kinases).
(§4) 1 mM [γ-^32P] ATP. The specific activity of the [γ-^32P] ATP solution was 1×10^5 to 1×10^6 c.p.m. per nmol depending on what was needed to produce an optimal signal/noise ratio. […] To measure the concentration of ATP, a sample of such a stock solution was diluted to 20 μM, and the absorbance of the diluted sample was measured at 259 nm. The absorbance of a 20-μM stock solution of ATP at 259 nm was about 0.31. […] ATP to produce a radioactivity of 1×10^5 to 1×10^6 c.p.m. per nmol. […]
(§5) 13) Measure radioactivity in the samples by Cerenkov counting (e.g., without liquid scintillation fluid) in a liquid scintillation counter using a “^32P program”. […]

A further experiment has as its target MINK1 (Homo sapiens, UniProt Q8N4C8). Kind of experiment: Protein kinase assay ([γ-32P] ATP), MINK1. The settings on record: read-out: Activity of the protein kinase when treated with compound I-1 (% control). The method, then: as §1, §2, §3, §4, §5
Another experiment has as its system ROCK 2. Kind of experiment: Protein kinase assay ([γ-32P] ATP), ROCK 2. As for the experimental part:
as §1, §2, §3, §4, §5

Another experiment has as its target SRPK1 (Homo sapiens, UniProt Q96SB4). Kind of experiment: Protein kinase assay ([γ-32P] ATP), SRPK1. The note with it: read-out: Activity of the protein kinase when treated with compound I-1 (% control). The method, then:
as §1, §2, §3, §4, §5

The next experiment deals with MSK1 (Homo sapiens, UniProt O75582). The experiment in a line: Protein kinase assay ([γ-32P] ATP), MSK1. The note with it: read-out: Activity of the protein kinase when treated with compound I-1 (% control). The method, then: as §1, §2, §3, §4, §5
The target of the next experiment is TAO1 (Homo sapiens, UniProt Q7L7X3). The experiment in a line: Protein kinase assay ([γ-32P] ATP), TAO1. The settings on record: read-out: Activity of the protein kinase when treated with compound I-1 (% control). The method, then:
as §1, §2, §3, §4, §5

A further experiment concerns the target MPSK1 (Homo sapiens, UniProt O75716). The experiment in a line: Protein kinase assay ([γ-32P] ATP), MPSK1. The settings on record: read-out: Activity of the protein kinase when treated with compound I-1 (% control). As for the experimental part: as §1, §2, §3, §4, §5
For a further experiment, the target named is IGF-1R (Homo sapiens, UniProt P08069). The experiment in a line: Protein kinase assay ([γ-32P] ATP), IGF-1R. The note with it: read-out: Activity of the protein kinase when treated with compound I-1 (% control). As for the experimental part: as §1, §2, §3, §4, §5
For a further experiment, the target named is MARK3 (Homo sapiens, UniProt P27448). The experiment in a line: Protein kinase assay ([γ-32P] ATP), MARK3. The settings on record: read-out: Activity of the protein kinase when treated with compound I-1 (% control). As for the experimental part: as §1, §2, §3, §4, §5
Sequence of MARK3 (P27448 whole entry): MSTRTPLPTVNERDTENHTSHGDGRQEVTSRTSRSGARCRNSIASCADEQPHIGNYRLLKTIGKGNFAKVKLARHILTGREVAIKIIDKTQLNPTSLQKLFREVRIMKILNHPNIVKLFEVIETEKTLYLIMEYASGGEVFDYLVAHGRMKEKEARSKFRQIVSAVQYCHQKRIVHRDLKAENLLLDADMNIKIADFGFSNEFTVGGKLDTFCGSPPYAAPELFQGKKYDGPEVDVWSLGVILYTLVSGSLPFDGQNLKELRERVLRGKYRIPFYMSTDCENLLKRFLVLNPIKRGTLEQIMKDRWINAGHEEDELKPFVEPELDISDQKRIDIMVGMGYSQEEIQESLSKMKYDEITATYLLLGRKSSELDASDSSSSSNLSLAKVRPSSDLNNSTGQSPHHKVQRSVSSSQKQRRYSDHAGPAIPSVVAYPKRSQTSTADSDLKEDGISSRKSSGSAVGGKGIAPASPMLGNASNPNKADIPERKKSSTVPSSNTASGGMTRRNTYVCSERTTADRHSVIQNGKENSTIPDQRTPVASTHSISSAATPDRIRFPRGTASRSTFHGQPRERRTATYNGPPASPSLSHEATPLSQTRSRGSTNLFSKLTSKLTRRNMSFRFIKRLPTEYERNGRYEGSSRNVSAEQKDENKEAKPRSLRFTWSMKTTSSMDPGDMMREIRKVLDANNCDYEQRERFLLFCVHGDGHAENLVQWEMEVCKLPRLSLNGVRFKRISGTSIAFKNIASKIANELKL
Another experiment deals with MLK1 (Homo sapiens, UniProt P80192). Kind of experiment: Protein kinase assay ([γ-32P] ATP), MLK1. The note with it: read-out: Activity of the protein kinase when treated with compound I-1 (% control). The method, then: as §1, §2, §3, §4, §5
Sequence of MLK1 (P80192 whole entry): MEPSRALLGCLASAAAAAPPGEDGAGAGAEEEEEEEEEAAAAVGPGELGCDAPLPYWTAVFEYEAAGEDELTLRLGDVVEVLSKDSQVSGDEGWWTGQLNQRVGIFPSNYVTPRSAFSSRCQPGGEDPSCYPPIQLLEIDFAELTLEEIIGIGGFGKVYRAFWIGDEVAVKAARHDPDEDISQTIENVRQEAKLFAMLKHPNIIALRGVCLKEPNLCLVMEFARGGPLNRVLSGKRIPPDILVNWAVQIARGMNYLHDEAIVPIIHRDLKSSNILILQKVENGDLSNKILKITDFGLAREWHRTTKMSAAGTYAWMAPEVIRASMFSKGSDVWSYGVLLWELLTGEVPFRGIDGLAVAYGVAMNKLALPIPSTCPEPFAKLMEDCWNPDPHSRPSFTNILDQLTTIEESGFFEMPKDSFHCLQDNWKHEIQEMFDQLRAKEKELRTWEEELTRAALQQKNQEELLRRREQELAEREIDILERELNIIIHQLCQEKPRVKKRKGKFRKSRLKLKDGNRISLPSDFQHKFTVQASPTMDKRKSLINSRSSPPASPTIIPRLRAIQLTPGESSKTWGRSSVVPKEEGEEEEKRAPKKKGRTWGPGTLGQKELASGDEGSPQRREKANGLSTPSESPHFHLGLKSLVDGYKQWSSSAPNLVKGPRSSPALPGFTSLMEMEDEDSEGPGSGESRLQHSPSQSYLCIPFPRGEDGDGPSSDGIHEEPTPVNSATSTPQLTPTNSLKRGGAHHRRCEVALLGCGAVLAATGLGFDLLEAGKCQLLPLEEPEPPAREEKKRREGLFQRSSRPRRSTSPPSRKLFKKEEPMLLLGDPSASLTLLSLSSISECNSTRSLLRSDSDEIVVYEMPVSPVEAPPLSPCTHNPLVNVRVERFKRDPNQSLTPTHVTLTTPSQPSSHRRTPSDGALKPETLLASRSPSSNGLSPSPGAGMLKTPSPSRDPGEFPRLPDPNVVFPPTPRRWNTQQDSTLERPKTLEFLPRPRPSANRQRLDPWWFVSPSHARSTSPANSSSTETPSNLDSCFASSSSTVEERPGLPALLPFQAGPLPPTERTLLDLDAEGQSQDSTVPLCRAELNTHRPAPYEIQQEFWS
Where [1] appears, read: 0.1 μM of compound I-1, DMSO control = 100%.
The mark [2] stands for this setting: 1 μM of compound I-1, DMSO control = 100%.

Sequence of MINK1 (Q8N4C8 whole entry): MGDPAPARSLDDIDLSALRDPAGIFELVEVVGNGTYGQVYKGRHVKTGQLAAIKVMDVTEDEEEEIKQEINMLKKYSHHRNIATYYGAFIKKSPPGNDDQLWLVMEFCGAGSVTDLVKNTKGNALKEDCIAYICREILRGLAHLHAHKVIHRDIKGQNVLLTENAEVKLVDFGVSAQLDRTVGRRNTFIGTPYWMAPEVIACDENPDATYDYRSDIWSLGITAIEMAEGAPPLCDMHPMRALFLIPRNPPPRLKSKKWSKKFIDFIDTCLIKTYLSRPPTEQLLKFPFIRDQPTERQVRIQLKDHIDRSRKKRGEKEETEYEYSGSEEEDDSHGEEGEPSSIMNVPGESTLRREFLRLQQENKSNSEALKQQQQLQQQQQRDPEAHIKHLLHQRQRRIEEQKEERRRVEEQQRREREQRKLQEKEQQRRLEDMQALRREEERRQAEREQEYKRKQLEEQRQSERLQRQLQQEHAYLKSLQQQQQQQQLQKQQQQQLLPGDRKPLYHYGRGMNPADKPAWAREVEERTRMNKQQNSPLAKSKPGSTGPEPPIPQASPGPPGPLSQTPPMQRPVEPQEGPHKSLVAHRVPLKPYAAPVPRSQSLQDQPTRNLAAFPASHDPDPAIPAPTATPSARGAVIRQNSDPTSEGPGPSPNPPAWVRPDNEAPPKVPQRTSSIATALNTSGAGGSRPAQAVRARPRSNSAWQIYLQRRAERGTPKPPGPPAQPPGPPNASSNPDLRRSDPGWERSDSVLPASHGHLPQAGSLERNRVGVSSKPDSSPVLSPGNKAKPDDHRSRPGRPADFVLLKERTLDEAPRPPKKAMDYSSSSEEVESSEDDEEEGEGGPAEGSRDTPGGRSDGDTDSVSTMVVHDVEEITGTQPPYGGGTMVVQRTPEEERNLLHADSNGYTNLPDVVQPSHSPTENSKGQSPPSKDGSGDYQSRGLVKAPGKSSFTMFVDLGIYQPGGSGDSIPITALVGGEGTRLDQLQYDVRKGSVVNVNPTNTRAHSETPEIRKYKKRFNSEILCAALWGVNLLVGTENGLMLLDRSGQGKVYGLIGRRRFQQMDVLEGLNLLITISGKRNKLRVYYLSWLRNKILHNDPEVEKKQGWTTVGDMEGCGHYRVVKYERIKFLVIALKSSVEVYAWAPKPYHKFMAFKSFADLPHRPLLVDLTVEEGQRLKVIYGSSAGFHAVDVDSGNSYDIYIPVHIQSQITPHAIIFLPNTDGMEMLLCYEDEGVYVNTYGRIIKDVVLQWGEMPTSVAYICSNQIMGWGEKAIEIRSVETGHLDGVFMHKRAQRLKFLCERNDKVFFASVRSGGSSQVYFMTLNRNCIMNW
Sequence of TAO1 (Q7L7X3 whole entry): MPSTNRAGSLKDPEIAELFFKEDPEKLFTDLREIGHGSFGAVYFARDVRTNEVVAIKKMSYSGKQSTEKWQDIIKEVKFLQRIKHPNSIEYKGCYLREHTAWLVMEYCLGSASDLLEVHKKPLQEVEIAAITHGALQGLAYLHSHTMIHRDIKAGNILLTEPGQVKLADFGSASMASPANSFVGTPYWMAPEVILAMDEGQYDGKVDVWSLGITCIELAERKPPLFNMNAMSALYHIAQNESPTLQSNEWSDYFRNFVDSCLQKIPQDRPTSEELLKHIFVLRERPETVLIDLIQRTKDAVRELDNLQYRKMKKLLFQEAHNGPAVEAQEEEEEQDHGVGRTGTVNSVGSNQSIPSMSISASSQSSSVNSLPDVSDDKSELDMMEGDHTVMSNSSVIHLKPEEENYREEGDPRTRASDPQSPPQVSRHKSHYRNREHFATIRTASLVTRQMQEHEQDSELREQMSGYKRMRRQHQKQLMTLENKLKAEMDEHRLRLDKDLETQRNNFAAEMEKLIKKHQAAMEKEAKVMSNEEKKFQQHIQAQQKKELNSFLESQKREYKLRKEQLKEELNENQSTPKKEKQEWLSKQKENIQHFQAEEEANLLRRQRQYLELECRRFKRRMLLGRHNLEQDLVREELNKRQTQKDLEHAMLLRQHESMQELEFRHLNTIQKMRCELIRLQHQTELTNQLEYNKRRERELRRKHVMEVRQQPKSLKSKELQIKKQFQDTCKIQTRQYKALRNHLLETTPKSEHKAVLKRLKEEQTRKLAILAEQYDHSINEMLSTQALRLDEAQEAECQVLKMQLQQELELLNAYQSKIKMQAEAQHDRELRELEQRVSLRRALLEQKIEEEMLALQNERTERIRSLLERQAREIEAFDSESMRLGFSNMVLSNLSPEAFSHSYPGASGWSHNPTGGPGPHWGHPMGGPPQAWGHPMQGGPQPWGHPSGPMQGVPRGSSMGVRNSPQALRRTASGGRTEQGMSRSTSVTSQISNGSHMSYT
Sequence of SRPK1 (Q96SB4 whole entry, species assumed): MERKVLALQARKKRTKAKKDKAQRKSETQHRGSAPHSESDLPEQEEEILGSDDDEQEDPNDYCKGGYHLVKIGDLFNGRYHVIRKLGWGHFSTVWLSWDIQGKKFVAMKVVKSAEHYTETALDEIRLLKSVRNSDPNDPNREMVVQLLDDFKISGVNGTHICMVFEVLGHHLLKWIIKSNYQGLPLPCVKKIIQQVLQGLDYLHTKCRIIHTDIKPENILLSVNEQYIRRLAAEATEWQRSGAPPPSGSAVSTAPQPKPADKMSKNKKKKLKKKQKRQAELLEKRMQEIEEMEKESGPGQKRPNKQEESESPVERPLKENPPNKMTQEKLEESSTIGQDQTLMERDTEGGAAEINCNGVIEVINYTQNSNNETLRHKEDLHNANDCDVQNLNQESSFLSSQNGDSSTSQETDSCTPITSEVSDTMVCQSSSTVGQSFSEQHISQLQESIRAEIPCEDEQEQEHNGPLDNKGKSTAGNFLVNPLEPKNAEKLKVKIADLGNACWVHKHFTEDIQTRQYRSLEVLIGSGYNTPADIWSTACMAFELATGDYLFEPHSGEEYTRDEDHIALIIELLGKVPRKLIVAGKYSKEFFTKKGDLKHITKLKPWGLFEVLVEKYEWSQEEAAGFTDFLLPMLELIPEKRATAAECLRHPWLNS

On to `Cc1cccc(C)c1NC(=O)N1C/C=C\COc2cccc(c2)Nc2cc1ncn2` [Compound I-1], for which the remaining activity at 0.1 µM at DYRK1A (setting [1]) turned out to be 104%; on MINK1 (setting [1]), 46%; at SRPK1 (setting [1]), 100%; on MSK1 (setting [1]), 107%; on TAO1 (setting [1]) it was 72%; on MPSK1 (setting [1]), 110%. Further, the remaining activity at 0.1 µM on IGF-1R (setting [1]) worked out at 109%; at MARK3 (setting [1]), 90%; at MLK1 (setting [1]) it was 60%. Besides, the remaining activity at 1 µM was 86% at DYRK1A (setting [2]); 9% at MINK1 (setting [2]); 74% on SRPK1 (setting [2]); 81% on MSK1 (setting [2]); 34% on TAO1 (setting [2]); 89% on MPSK1 (setting [2]). Also, the values for the remaining activity at 1 µM on IGF-1R (setting [2]), on MARK3 (setting [2]) and at MLK1 (setting [2]) were 61%, 67% and 17%, respectively. The “Activity of the protein kinase when treated with compound I-1 (% control)” value in the experiment on ROCK 2 (setting [1]) is recorded as 95 % control; with ROCK 2 (setting [2]), 91 % control.
